Measured values taken from patent publication US9034886B2, “4-aminoquinazoline derivatives and uses thereof” (Shanghai Institute of Pharmaceutical Industry, priority 2011, dated 2015).

What was measured:
[1] = Maximum tolerance dose through intragastrical administration; type: in vivo; conditions: mice, administrated intragastrically
Description: Forty ICR mice, half female and half male, weighing […] were divided into four groups, 10 mice in each group. After the mice were fasted for 6 h, the compound to be tested was administrated intragastrically to each group at a volume of 0.3 ml/10 g by using a sterile plastic syringe. General physical signs and the deaths of the animals were record at 1, 2 and 4 h after the administration. The animals were then observed continuously for 14 days and their weights, physical signs and deaths were observed and recorded every day. Dead animals were dissected to see if there was any visible pathological change in the animal's viscera and pathological examination was performed on suspicious tissues and organs. A part of the experimental results is as follows.

[2] = system: PANC-1 human pancreatic cancer cells; experiment: In vitro anti-proliferative effect, CCK-8 method, PANC-1; type: cell-based; conditions: Homo sapiens, PANC-1
Procedure, shortened: (§1)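 Two-point screen, 100 μM and 10 μM; CCK-8 colorimetric read-out gives % growth inhibition.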

[3] = system: Jurkat E6-1 human T-cell lymphoma; experiment: In vitro anti-proliferative effect, CCK-8 method, Jurkat E6-1; type: cell-based; conditions: Homo sapiens, Jurkat E6.1
Procedure, shortened: as §1

[4] = system: Colo320 human colorectal cancer cell lines; experiment: In vitro anti-proliferative effect, CCK-8 method, Colo320; type: cell-based; conditions: Homo sapiens, COLO 320, Colo320 cell strain, CCK-8 method; for inhibition at 10 µM: compound at 10 μM; for inhibition at 100 µM: compound at 100 μM
Procedure, shortened: as §1

[5] = system: Hep3B2.1-7 human liver cancer cells; experiment: In vitro anti-proliferative effect, CCK-8 method, Hep3B; type: cell-based; conditions: Homo sapiens, Hep3B cell strain, CCK-8 method; for inhibition at 10 µM: compound at 10 μM; for inhibition at 100 µM: compound at 100 μM
Procedure, shortened: as §1

[6] = molecular target: HDAC1 (Homo sapiens (Human), UniProt Q13547); experiment: In vitro inhibition of subtype HDAC1 (HDAC1 Inhibitor Drug Screening Kit, Biovision); type: biochemical; conditions: for inhibition at 1 µM / inhibition at 10 µM: read-out: % Inhibition towards HDAC1; for inhibitory activity against HDAC1 compared with MS-275: both concentrations 10 μM and 1 μM
Description: The in vitro inhibitory activities of the compounds towards the subtype HDAC1 were tested according to the instructions in the HDAC1 Inhibitor Drug Screening Kit (Biovision).
(1) The compounds to be tested were each individually prepared as 10 μM and 1 μM solutions and their inhibitory activities at these concentrations were tested.
Each dilution sample was placed in two wells and the enzyme inhibition IC50 of the compound was tested.

[7] = system: K562 human chronic myelogenous leukemia cells; experiment: In vitro anti-proliferative effect, CCK-8 method, K562; type: cell-based; conditions: Homo sapiens, K562
Procedure, shortened: (§2)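 K562 and Hut78 cells exposed to compounds at 100 μM and 10 μM. Percent inhibition of proliferation determined by CCK-8 read-out.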

[8] = system: HDACs; experiment: In vitro inhibition of HDACs (HDAC Inhibitor Drug Screening Kit, Biovision K340-100); type: biochemical
Description: The in vitro inhibitory activities of the compounds towards HDACs were tested according to the instructions in the HDAC Inhibitor Drug Screening Kit (Biovision/Catalog #K340-100).
(1) The compounds to be tested were each individually prepared as 2 mM, 200 μM and 40 μM solutions and their inhibitory activities at these concentrations were tested.

[9] = system: MDA-MB-435s human breast cancer cells; experiment: In vitro anti-proliferative effect, CCK-8 method, MDA-MB-435s; type: cell-based; conditions: Homo sapiens, MDA-MB-435S
Procedure, shortened: as §1

[10] = system: Hut78 T lymphocytic leukemia cells; experiment: In vitro anti-proliferative effect, CCK-8 method, Hut78; type: cell-based; conditions: Homo sapiens, HuT78, read-out: Hut-78 (inhibition %)
Procedure, shortened: as §2

[11] = system: A549 human lung cancer cells; experiment: In vitro anti-proliferative effect, CCK-8 method, A549; type: cell-based; conditions: Homo sapiens, A549
Procedure, shortened: as §1

[12] = system: PC-3 human prostate cancer; experiment: In vitro anti-proliferative effect, CCK-8 method, PC-3; type: cell-based; conditions: Homo sapiens, PC-3 cell strain, CCK-8 method; for inhibition at 10 µM: compound at 10 μM; for inhibition at 100 µM: compound at 100 μM
Procedure, shortened: as §1

HDAC1, sequence (Q13547 whole entry): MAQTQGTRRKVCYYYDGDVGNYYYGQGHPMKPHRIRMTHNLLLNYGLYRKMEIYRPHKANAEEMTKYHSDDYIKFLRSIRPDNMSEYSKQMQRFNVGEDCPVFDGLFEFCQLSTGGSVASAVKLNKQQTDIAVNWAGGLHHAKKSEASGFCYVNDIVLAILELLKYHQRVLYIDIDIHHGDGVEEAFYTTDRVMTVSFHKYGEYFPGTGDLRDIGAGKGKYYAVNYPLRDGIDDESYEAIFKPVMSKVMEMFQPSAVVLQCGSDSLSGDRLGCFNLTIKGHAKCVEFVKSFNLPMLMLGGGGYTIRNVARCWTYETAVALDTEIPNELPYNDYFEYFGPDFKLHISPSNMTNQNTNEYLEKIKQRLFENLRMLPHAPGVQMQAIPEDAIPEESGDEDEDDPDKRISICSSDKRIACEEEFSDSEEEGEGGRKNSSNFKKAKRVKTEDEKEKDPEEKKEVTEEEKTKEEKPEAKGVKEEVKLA

Row | Compound | maximum tolerance dose [1] | inhibition at 10 µM [2] [%] | inhibition at 100 µM [2] [%] | inhibition at 10 µM [3] [%] | inhibition at 100 µM [3] [%] | inhibition at 10 µM [4] [%] | inhibition at 100 µM [4] [%] | inhibition at 10 µM [5] [%] | inhibition at 100 µM [5] [%] | inhibition at 1 µM [6] [%] | inhibition at 10 µM [6] [%] | inhibitory activity against HDAC1 compared with MS-275 [6] | inhibition at 10 µM [7] [%] | inhibition at 100 µM [7] [%] | IC50 [8] [nM] | Inhibition percentage (%) towards HDACs ([8]; 40 μM) [%] | Inhibition percentage (%) towards HDACs ([8]; 200 μM) [%] | Inhibition percentage (%) towards HDACs ([8]; 2 mM) [%] | inhibition at 10 µM [9] [%] | inhibition at 100 µM [9] [%] | further results
1 | CS(=O)(=O)CCNCc1ccc(-c2ccc3ncnc(Nc4ccc(C(=O)Nc5cc(F)ccc5N)cc4)c3c2)o1 [Compound V-20, N-(2-amino-5-fluorophenyl)-4-[6-(5-((2-(methylsulfonyl)ethylamino)methyl)furyl)quinazoline-4-amino]benzamide] | over 5000 mg/kg | -1.7 | 52 | 84.8 | 89.4 | 6.5 | 58.8 | 23.5 | 60 | 53.5 | 77.4 | superior to that of MS-275 | 64.3 | 92.9 | 1220 | 28.2 | 56.9 | 67.5 | 17 | 57.8 | inhibition at 10 µM [10]: 44.4%; inhibition at 100 µM [10]: 85.7%; inhibition at 10 µM [11]: 0%; inhibition at 100 µM [11]: 41.3%; inhibition at 10 µM [12]: 48.1%; inhibition at 100 µM [12]: 75.5%
2 | COc1cc2ncnc(Nc3ccc(C(=O)Nc4ccccc4N)cc3)c2cc1OCCCN1CCOCC1 [Compound V-17, N-(2-aminophenyl)-4-[7-methoxy-6-(3-morpholinylpropoxy)quinazoline-4-amino]benzamide] | over 5000 mg/kg | 12 | 25.1 | 20.3 | 80.2 | 4.9 | 28.9 | 18.4 | 45.7 | 53.9 | 76.2 | superior to that of MS-275 | 33.6 | 72.4 | 1720 | 39.7 | 60.7 | 86.7 | 32.5 | 73.3 | IC50 [6]: 735 nM; inhibitory activity according to in vitro IC50 value against HDACs compared with MS-275 [8]: better inhibitory activities than MS-275; inhibitory activity on HDACs compared with MS-275 ([8]; concentrations of 2 mM, 200 μM, and 40 μM): significantly stronger inhibitory activities than MS-275; inhibition at 10 µM [10]: 73.4%; inhibition at 100 µM [10]: 93.5%; inhibition at 10 µM [11]: 29.8%; inhibition at 100 µM [11]: 67.9%; inhibition at 10 µM [12]: 41.8%; inhibition at 100 µM [12]: 67.1%
